Structures are written as SMILES.

The text below walks through data of publication PMC6525040 (ChemMedChem, 2019).

Assay [1] has as its target T1, Human RAD51 protein binding to ssDNA (Homo sapiens, UniProt Q06609).
T1 sequence (Q06609 1-339): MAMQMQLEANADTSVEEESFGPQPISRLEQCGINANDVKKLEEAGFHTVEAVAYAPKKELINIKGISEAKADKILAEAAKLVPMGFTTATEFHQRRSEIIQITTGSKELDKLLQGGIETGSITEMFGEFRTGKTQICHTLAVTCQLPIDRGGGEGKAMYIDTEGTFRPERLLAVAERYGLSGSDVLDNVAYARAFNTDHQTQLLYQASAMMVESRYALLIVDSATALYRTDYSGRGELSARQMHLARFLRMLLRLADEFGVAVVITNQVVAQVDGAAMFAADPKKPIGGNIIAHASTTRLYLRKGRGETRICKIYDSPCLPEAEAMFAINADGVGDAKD
The assay is described as follows: RAD51-DNA binding assay. Conditions: gel shift, 0.5 μM RAD51. Background: In EMSA bound probe runs differently from free probe, usually more slowly.

Assay [2] concerns relaxed covalently-closed circular dsDNA plasmid (pRS306). The assay is described as follows: dsDNA intercalation assay. Format: binding. Conditions: 10 μM; DMSO vehicle defined as 0, saturation of the endpoint = 1.

As to `O=C1C(Cl)=C(N2CCOCC2)C(=O)N1c1ccc(Cl)c(Cl)c1` [RI-1], the “effect on RAD51 binding to ssDNA / RAD51-ssDNA nucleoprotein filaments (in words)” value in assay [1] is recorded as “inhibited”.

Consider `CCN(CC)CCCC(C)Nc1ccnc2cc(Cl)ccc12` (centres unmarked) [chloroquine], for which the intercalation score in assay [2] is 1.
